# According to article PMC10683482, “Offsetting Low-Affinity Carbohydrate Binding with Covalency to Engage Sugar-Specific Proteins for Tumor-Immune Proximity Induction” (ACS Central Science, 2023):
# Key:
# anti-23F antibody = test: Mass spectrometry study of anti-23F labelling; type: binding, human; settings: 10 µM cARM, 2.7 µM anti-23F, 45 hours
# Procedure: To further confirm selectivity, an MS study was conducted to determine the site of labeling (Figures S10 and S11). […] No other labeling site was detected on the light chain; however, the lability of the SO2F-serine/tyrosine linkage to MS sample preparation protocols likely limited complete labeling site coverage. […] Due to the low labeling efficiency of rhamnose-AI-cARM, no labeling site could be identified. […] Determining the selectivity for antirhamnose antibodies in the presence of off-target cell surface proteins will be the focus of future in vivo studies.
# Mass Spectrometry Study – Anti-23F Labelling
# Anti-23F (2.7 µM) was incubated with 10 µM of Biotin-AI-cAR M 4 or Biotin-SO2F-cAR M 12, or PBS (antibody only) for 45 hours before MS analysis. Analysis was completed by Bioinformatics Solutions
# Inc. Briefly, for intact protein analysis each sample was treated with PNGase F to remove glycans followed by LC-MS analysis. To determine site of labelling, each sample was digested with tryspin, chymostrypsin, and pepsin then analyzed by LC-MS/MS on a timsTOF Pro. Peptide spectra were mapped to a known antibody sequence (anti -23F antibody, Creative Biolabs - PABX-173). No labelling was identified with acyl imidazole containing cARM 4. […]
# approxima tely 30% labelling post MS protocol (Figure S11)
# Figure S10. Sample analysis of peptide mapping of anti-23F heavy chain. Modification with cARM 12 is […]
# (1 picture or pasted object on this page, not shown here)
# Hek-PSMA cells = test: Microscopy of induced antibody recruitment (opsonization); type: cell-based, human; settings: 8 μM compound with 4 μM anti-23F 24 h
# Procedure: To test the antitumor immune function of rhamnose SO2F cARMs, GU was again incorporated as a TBD for PSMA targeting (compound 14, Figure 5A, Scheme S5). The ability to selectively induce opsonization of model prostate cancer cells via monoclonal anti-23F was first evaluated using fluorescence microscopy (Figure 5B, Figure S12). Compound 14 (8 μM) was incubated with anti-23F (4 μM) for 24 h followed by addition to PSMA expressing Hek-PSMA cells. Following a 20 min incubation, fluorescent secondary antibody was added. […] The addition of rhamnose competitor during the antibody labeling reaction again inhibited covalent antibody engagement and opsonization of target cells (Figure S12).
# Figure 5 Functional analysis of PSMA-targeting SuFEx cARMs. A. Chemical structure of the functional GU cARM molecule used for PSMA targeting. B. Confocal (top) and fluorescent imaging (bottom) of Hek-PSMA cells treated with anti-23F only or anti-23F antibody pre-incubated with rhamnose-SO2F-cARM 14. C. Jurkat activation assay evaluation of 14 directly in polyclonal human IgG. Each cARM/ARM (9 μM) was incubated with polyclonal human IgG (230 μM) overnight and then added to pre-plated Hek-P cells (50,000 cells). […] Activation of jurkat cells was determined by measuring luciferase expression with a BioGlo assay kit. […] ADCP was determined via flow cytometry. […]
Compound,site of labelling (LC-MS/MS peptide mapping) (anti-23F antibody),opsonization of target cells (Hek-PSMA cells)
C[C@@H]1O[C@@H](OCc2cn(CCc3cn(C(=O)OCCOCCOCCOCCOCCOCCOCCOCCNC(=O)CCCC[C@@H]4SC[C@@H]5NC(=O)N[C@@H]54)cn3)nn2)[C@H](O)[C@H](O)[C@H]1O [compound 4],No labelling,
C[C@@H]1O[C@@H](OCc2cn(CCCNC(=O)OCCNC(=O)CCCCCNC(=O)CCCCCNC(=O)CCCCCNC(=O)NCCCC[C@H](NC(=O)N[C@@H](CCC(=O)O)C(=O)O)C(=O)O)nn2)[C@H](O)[C@H](O)[C@H]1O [compound 11],,failed to opsonize target cells
